The record followed here is patent US20240270740A1, “INHIBITORS OF CYCLIC GMP-AMP SYNTHASE AND USES THEREOF” (Ventus Therapeutics U.S., Inc., priority 2022, published 2024).

For this test, the target named is hcGAS (Homo sapiens, UniProt Q8N884). The experiment in a line: hcGAS LCMS assay (direct measurement of cGAMP production). The settings on record: 0.5 nM hcGAS, 100 μM ATP, 100 μM GTP, 25 nM dsDNA, 4 h incubation. The test is classed as biochemical. Put shortly:
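Direct LC/MS readout of cGAMP formed: 4-h enzyme–substrate incubation with compound, stopped by acetonitrile/water quench carrying isotope-labelled cGAMP (0.15 mM) as standard. Potency reported as IC50 ranges.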

Some results are limits rather than exact numbers.

Sequence of hcGAS (Q8N884 whole entry): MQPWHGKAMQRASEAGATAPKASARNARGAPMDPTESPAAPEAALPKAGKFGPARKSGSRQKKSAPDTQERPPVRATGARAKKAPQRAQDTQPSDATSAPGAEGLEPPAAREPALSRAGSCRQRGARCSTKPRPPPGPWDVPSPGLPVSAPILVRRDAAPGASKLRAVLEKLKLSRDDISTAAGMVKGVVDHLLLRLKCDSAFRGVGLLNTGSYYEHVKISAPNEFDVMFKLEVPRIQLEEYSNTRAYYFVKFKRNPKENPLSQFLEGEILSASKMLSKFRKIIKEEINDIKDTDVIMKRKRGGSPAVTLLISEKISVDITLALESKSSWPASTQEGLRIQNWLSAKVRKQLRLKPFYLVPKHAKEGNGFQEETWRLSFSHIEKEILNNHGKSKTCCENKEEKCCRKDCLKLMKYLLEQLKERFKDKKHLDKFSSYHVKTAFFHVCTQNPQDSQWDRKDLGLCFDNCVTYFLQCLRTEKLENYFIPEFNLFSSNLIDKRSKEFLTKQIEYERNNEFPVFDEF

For `Nc1ccnn1-c1nnc(NC(=O)c2cc(NC34CC(C3)C4)c(OCCO)c(=O)o2)s1` [Compound 177, N-(5-(5-amino-1H-pyrazol-1-yl)-1,3,4-thiadiazol-2-yl)-4-(bicyclo[1.1.1]pentan-1-ylamino)-3-(2-hydroxyethoxy)-2-oxo-2H-pyran-6-carboxamide], the IC50 – broadly, the point on the concentration scale where inhibition reaches its midpoint – is under 5 nM.
Consider `COc1c(N2CC[C@H](OC)C2=O)cc(C(=O)Nc2nnc(-n3nccc3C)s2)oc1=O` [Compound 151, 5-methoxy-4-[(3S)-3-methoxy-2-oxopyrrolidin-1-yl]-N-[5-(5-methylpyrazol-1-yl)-1,3,4-thiadiazol-2-yl]-6-oxopyran-2-carboxamide], for which the IC50 is 5 to 20 nM.
With `COCCNc1cc(C(=O)Nc2nnc(-c3c(Cl)nsc3Cl)s2)oc(=O)c1OC` [Compound 156, N-(5-(3,5-dichloroisothiazol-4-yl)-1,3,4-thiadiazol-2-yl)-3-methoxy-4-((2-methoxyethyl)amino)-2-oxo-2H-pyran-6-carboxamide], the IC50 was 60 to 200 nM.
Next, `COc1c(N[C@@H]2CCCCC[C@@H]2O)cc(C(=O)Nc2nnc(-n3nccc3C)s2)oc1=O` (racemic) [Rac-26, 4-(((cis)-2-hydroxycycloheptyl)amino)-3-methoxy-N-(5-(5-methyl-1H-pyrazol-1-yl)-1,3,4-thiadiazol-2-yl)-2-oxo-2H-pyran-6-carboxamide]: under 5 nM; `COc1c(N[C@@H]2CC[C@@H]2OC)cc(C(=O)Nc2nnc(-n3nccc3C)s2)oc1=O` (single isomer, unassigned) [122*]: 5 to 20 nM; `COc1c(N2C[C@@H](OC)CC2=O)cc(C(=O)Nc2nnc(-n3nccc3C)s2)oc1=O` [Compound 155, (S)-3-methoxy-4-(4-methoxy-2-oxopyrrolidin-1-yl)-N-(5-(5-methyl-1H-pyrazol-1-yl)-1,3,4-thiadiazol-2-yl)-2-oxo-2H-pyran-6-carboxamide]: 5 to 20 nM.
The compound `COc1c(N(CCO)CCO)cc(C(=O)Nc2nnc(-n3nccc3C)s2)oc1=O` (single isomer, unassigned) [Compound 158, 4-(bis(2-hydroxyethyl)amino)-3-methoxy-N-(5-(5-methyl-1H-pyrazol-1-yl)-1,3,4-thiadiazol-2-yl)-2-oxo-2H-pyran-6-carboxamide] had an IC50 of 60 to 200 nM.
The same measure for `COc1c(N2CCCCC2=O)cc(C(=O)Nc2nnc(-n3nccc3C)s2)oc1=O` [Compound 96]: under 5 nM.
For the compound `COC[C@@H](Cc1ccccc1)Nc1cc(C(=O)Nc2nnc(-n3nccc3C)s2)oc(=O)c1OC` [Compound 170, (R)-3-methoxy-4-((1-methoxy-3-phenylpropan-2-yl)amino)-N-(5-(5-methyl-1H-pyrazol-1-yl)-1,3,4-thiadiazol-2-yl)-2-oxo-2H-pyran-6-carboxamide], the 50% inhibitory concentration (IC50) fell in the range of 5 to 20 nM.
`COC[C@@H](C)Nc1cc(C(=O)Nc2nnc(-c3sccc3Cl)s2)oc(=O)c1OC` [Compound 94, (R)—N-(5-(3-chlorothiophen-2-yl)-1,3,4-thiadiazol-2-yl)-3-methoxy-4-((1-methoxypropan-2-yl)amino)-2-oxo-2H-pyran-6-carboxamide] had an IC50 of 5 to 20 nM.
The same measure for `COc1c(N[C@@H]2CC[C@@H]2OCC(F)F)cc(C(=O)Nc2nnc(-n3nccc3C)s2)oc1=O` (single isomer, unassigned) [173*]: 20 to 60 nM; for `COc1c(NCCOCC(F)F)cc(C(=O)Nc2nnc(-n3nccc3C)s2)oc1=O` [Compound 17, 4-((2-(2,2-difluoroethoxy)ethyl)amino)-3-methoxy-N-(5-(5-methyl-1H-pyrazol-1-yl)-1,3,4-thiadiazol-2-yl)-2-oxo-2H-pyran-6-carboxamide]: 20 to 60 nM.
As to `COc1c(N(C)[C@@H]2CCC[C@@H]2O)cc(C(=O)Nc2nnc(-n3nccc3C)s2)oc1=O` (racemic) [Rac-159, 4-(((cis)-2-hydroxycyclopentyl)(methyl)amino)-3-methoxy-N-(5-(5-methyl-1H-pyrazol-1-yl)-1,3,4-thiadiazol-2-yl)-2-oxo-2H-pyran-6-carboxamide], the half-inhibitory concentration (IC50) was in the range of 5 to 20 nM.
The same measure for `COCC1(Nc2cc(C(=O)Nc3nnc(-n4nccc4C)s3)oc(=O)c2OC)CCCC1` [Compound 152, 3-methoxy-4-((1-(methoxymethyl)cyclopentyl)amino)-N-(5-(5-methyl-1H-pyrazol-1-yl)-1,3,4-thiadiazol-2-yl)-2-oxo-2H-pyran-6-carboxamide]: 5 to 20 nM; for `COc1c(N[C@@H](C)[C@H](C)OC)cc(C(=O)Nc2nnc(-n3nccc3C)s2)oc1=O` [Compound 163]: 60 to 200 nM.
On to `COc1c(N[C@@H]2CCC[C@@H]2OCC(F)F)cc(C(=O)Nc2nnc(-n3nccc3C)s2)oc1=O` [Compound 171, 4-(((1R, 2S)-2-(2,2-difluoroethoxy)cyclopentyl)amino)-3-methoxy-N-(5-(5-methyl-1H-pyrazol-1-yl)-1,3,4-thiadiazol-2-yl)-2-oxo-2H-pyran-6-carboxamide], for which the IC50 lay in the range of 5 to 20 nM.
Regarding `COc1c(N[C@H]2CCC[C@H]2O)cc(C(=O)Nc2nnc(-c3c(Cl)ccn3C)s2)oc1=O` [Compound 83, N-(5-(3-chloro-1-methyl-1H-pyrrol-2-yl)-1,3,4-thiadiazol-2-yl)-4-(((1S,2R)-2-hydroxycyclopentyl)amino)-3-methoxy-2-oxo-2H-pyran-6-carboxamide], the IC50 was under 5 nM.
Next, `COc1c(N[C@@H]2CCC[C@H]2OC)cc(C(=O)Nc2nnc(-n3nccc3C)s2)oc1=O` (single isomer, unassigned) [3*]: under 5 nM.
For `COc1c(N[C@H](C)[C@@H](C)OC)cc(C(=O)Nc2nnc(-n3nccc3C)s2)oc1=O` [Compound 161, 5-methoxy-4-{[(2R,3R)-3-methoxybutan-2-yl]amino}-N-[5-(5-methylpyrazol-1-yl)-1,3,4-thiadiazol-2-yl]-6-oxopyran-2-carboxamide], the IC50 is under 5 nM.
`COc1c(N[C@H]2CC[C@H]2OCC(F)F)cc(C(=O)Nc2nnc(-n3nccc3C)s2)oc1=O` (single isomer, unassigned) [172*] returned an IC50 of 5 to 20 nM.
For `COc1c(NC23CC(O)(C2)C3)cc(C(=O)Nc2nnc(-n3nccc3C)s2)oc1=O` [Compound 126, 4-((3-hydroxybicyclo[1.1.1]pentan-1-yl)amino)-3-methoxy-N-(5-(5-methyl-1H-pyrazol-1-yl)-1,3,4-thiadiazol-2-yl)-2-oxo-2H-pyran-6-carboxamide], the IC50 was in the range of 5 to 20 nM.
With `COc1c(N[C@@H]2CCCC[C@H]2OC)cc(C(=O)Nc2nnc(-n3nccc3C)s2)oc1=O` [Compound 202, 3-methoxy-4-(((1R,2R)-2-methoxycyclohexyl)amino)-N-(5-(5-methyl-1H-pyrazol-1-yl)-1,3,4-thiadiazol-2-yl)-2-oxo-2H-pyran-6-carboxamide], the half-inhibitory concentration (IC50) fell in the range of 5 to 20 nM.
With `COc1c(N[C@H]2CC[C@H]2OC)cc(C(=O)Nc2nnc(-n3nccc3C)s2)oc1=O` (single isomer, unassigned) [123*], the concentration for half-maximal inhibition (IC50) was 5 to 20 nM.
The compound `Cc1ccnn1-c1nnc(NC(=O)c2cc3c(c(=O)o2)OCCN3[C@H]2CCC[C@H]2C#N)s1` [Compound 224, 1-((1S,2R)-2-cyanocyclopentyl)-N-(5-(5-methyl-1H-pyrazol-1-yl)-1,3,4-thiadiazol-2-yl)-5-oxo-1,2,3,5-tetrahydropyrano[3,4-b][1,4]oxazine-7-carboxamide] registered an IC50 of under 5 nM.
As to `COC[C@@H](Nc1cc(C(=O)Nc2nnc(-n3nccc3C)s2)oc(=O)c1OC)C(C)C` [Compound 77, (S)-3-methoxy-4-((1-methoxy-3-methylbutan-2-yl)amino)-N-(5-(5-methyl-1H-pyrazol-1-yl)-1,3,4-thiadiazol-2-yl)-2-oxo-2H-pyran-6-carboxamide], the IC50 was 5 to 20 nM.
Compound `COCCOc1c(N[C@@H]2CCC[C@@H]2O)cc(C(=O)Nc2nnc(-c3c(Cl)ccn3C)s2)oc1=O` [Compound 86, N-(5-(3-chloro-1-methyl-1H-pyrrol-2-yl)-1,3,4-thiadiazol-2-yl)-4-(((1R,2S)-2-hydroxycyclopentyl)amino)-3-(2-methoxyethoxy)-2-oxo-2H-pyran-6-carboxamide] had a half-inhibitory concentration (IC50) of under 5 nM.
`COCCNc1cc(C(=O)Nc2nnc(-c3cscc3C#N)s2)oc(=O)c1OC` [Compound 138, N-[5-(4-cyanothiophen-3-yl)-1,3,4-thiadiazol-2-yl]-5-methoxy-4-[(2-methoxyethyl)amino]-6-oxopyran-2-carboxamide] yielded an IC50 of at least 200 nM.
The compound `COc1c(N2CC[C@@H](OC)C2=O)cc(C(=O)Nc2nnc(-n3nccc3C)s2)oc1=O` [Compound 150, (R)-3-methoxy-4-(3-methoxy-2-oxopyrrolidin-1-yl)-N-(5-(5-methyl-1H-pyrazol-1-yl)-1,3,4-thiadiazol-2-yl)-2-oxo-2H-pyran-6-carboxamide] displayed a concentration for half-maximal inhibition (IC50) of 5 to 20 nM.
For the compound `COCC(COC)Nc1cc(C(=O)Nc2nnc(-c3c(Cl)ccn3C)s2)oc(=O)c1OC` [Compound 84, N-(5-(3-chloro-1-methyl-1H-pyrrol-2-yl)-1,3,4-thiadiazol-2-yl)-4-((1,3-dimethoxypropan-2-yl)amino)-3-methoxy-2-oxo-2H-pyran-6-carboxamide], the IC50 is under 5 nM.
The same measure for `COC[C@]1(Nc2cc(C(=O)Nc3nnc(-n4nccc4C)s3)oc(=O)c2OC)CCOC1` (single isomer, unassigned) [Compound 101*]: 5 to 20 nM; for `COc1c(NC2CCC23COC3)cc(C(=O)Nc2nnc(-n3nccc3C)s2)oc1=O` (racemic) [Rac-56, 4-((2-oxaspiro[3.3]heptan-5-yl)amino)-3-methoxy-N-(5-(5-methyl-1H-pyrazol-1-yl)-1,3,4-thiadiazol-2-yl)-2-oxo-2H-pyran-6-carboxamide]: 5 to 20 nM; for `COC[C@H]1CCC[C@H]1Nc1cc(C(=O)Nc2nnc(-n3nccc3C)s2)oc(=O)c1OC` (single isomer, unassigned) [Compound 80*]: at least 200 nM.
In turn, `COc1c(N[C@@H]2CCCC[C@@H]2OC)cc(C(=O)Nc2nnc(-n3nccc3C)s2)oc1=O` [Compound 52, 3-methoxy-4-(((1R,2S)-2-methoxycyclohexyl)amino)-N-(5-(5-methyl-1H-pyrazol-1-yl)-1,3,4-thiadiazol-2-yl)-2-oxo-2H-pyran-6-carboxamide] registered an IC50 of 5 to 20 nM.
